Assay results taken from PMC3938481, “Molecular Cloning of a Novel Glucuronokinase/Putative Pyrophosphorylase from Zebrafish Acting in an UDP-Glucuronic Acid Salvage Pathway” (PLoS ONE, 2014).

Columns and labels:
Assay in all cases: coupled HPLC assay with pea UDP-sugar pyrophosphorylase
DrGKUP = target: T1, DrGKUP (Danio rerio, UniProt F6NZ60); type: biochemical; details: UTP, 4 mM MgCl2, 50 mM MOPS-KOH pH 7.5, 35°C
T1 construct: gene gkup; full length, 619 residues, about 70 kDa; StrepII-tag, made in Nicotiana benthamiana leaves
T1 sequence (F6NZ60 1-619): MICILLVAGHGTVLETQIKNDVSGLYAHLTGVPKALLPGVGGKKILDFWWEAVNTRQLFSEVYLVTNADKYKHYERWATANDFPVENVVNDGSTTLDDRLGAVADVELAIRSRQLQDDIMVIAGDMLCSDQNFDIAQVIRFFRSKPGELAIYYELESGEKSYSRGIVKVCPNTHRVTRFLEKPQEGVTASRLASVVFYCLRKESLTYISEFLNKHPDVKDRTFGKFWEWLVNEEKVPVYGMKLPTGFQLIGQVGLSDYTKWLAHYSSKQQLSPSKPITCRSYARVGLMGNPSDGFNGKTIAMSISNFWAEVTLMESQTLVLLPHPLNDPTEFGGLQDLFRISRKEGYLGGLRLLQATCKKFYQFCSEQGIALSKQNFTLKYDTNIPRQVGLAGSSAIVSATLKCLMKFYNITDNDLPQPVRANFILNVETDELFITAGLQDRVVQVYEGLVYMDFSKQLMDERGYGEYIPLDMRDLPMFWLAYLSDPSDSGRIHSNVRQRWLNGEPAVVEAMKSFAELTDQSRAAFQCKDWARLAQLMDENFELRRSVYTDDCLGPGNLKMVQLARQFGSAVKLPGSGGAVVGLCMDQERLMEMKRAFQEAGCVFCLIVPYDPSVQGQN

XtGKUP = target: T2, XtGKUP (Xenopus tropicalis, UniProt A0A6I8PZF0); type: biochemical; details: ATP, UTP, 4 mM MgCl2, 50 mM MOPS-KOH pH 7.5, 35°C
T2 construct: gene XB5896631; bifunctional enzyme cloned from tadpole first-strand cDNA; StrepII-tag, made in Nicotiana benthamiana leaves
T2 sequence (A0A6I8PZF0 1-619): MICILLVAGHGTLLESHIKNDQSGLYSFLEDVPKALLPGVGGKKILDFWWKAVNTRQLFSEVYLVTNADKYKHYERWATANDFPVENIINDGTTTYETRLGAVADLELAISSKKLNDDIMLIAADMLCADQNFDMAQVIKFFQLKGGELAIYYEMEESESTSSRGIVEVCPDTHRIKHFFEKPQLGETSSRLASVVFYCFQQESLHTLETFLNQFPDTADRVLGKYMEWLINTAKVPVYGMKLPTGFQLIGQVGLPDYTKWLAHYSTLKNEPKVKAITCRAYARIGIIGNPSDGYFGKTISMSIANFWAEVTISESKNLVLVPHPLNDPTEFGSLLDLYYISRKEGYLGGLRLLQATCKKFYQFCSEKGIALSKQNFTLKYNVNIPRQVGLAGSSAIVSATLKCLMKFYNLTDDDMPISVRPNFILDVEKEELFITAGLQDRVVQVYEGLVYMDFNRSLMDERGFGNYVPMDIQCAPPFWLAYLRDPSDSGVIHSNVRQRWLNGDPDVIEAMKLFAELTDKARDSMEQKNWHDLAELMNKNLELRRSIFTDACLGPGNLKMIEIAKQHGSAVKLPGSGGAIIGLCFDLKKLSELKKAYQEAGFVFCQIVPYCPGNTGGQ

[1] = substrate: Nc1ncnc2c1ncn2[C@@H]1O[C@H](COP(=O)(O)OP(=O)(O)OP(=O)(O)O)[C@@H](O)[C@H]1O; type: biochemical, Danio rerio; details: GlcA and UTP, 4 mM MgCl2, 50 mM MOPS-KOH pH 7.5, 35°C, ATP 0.01-1.4 mM
From the text: coupled HPLC assay with pea UDP-sugar pyrophosphorylase on DrGK

In the case of `Nc1ncnc2c1ncn2[C@@H]1O[C@H](COP(=O)(O)OP(=O)(O)OP(=O)(O)O)[C@@H](O)[C@H]1O` [ATP], the “coupled HPLC assay with pea UDP-sugar pyrophosphorylase” value (“coupled HPLC assay” below) (DrGKUP; GlcA) is reported as “The product is dependent on the presence of ATP, UTP and GlcA”.

`O=C(O)[C@H]1OC(O)[C@H](O)[C@@H](O)[C@@H]1O` (stereo partly drawn) [D-glucuronic acid] was tested, and the “coupled HPLC assay” value (XtGKUP) was “we can confirm the glucuronokinase activity for the Xenopus enzyme” and the “coupled HPLC assay” value (DrGKUP; ATP) was “The recombinant full length DrGKUP as well as the DrGK alone catalyzes the phosphorylation of GlcA”.

B1: DrGK (Danio rerio) (protein)
chain: AHYSSKQQLSPSKPITCRSYARVGLMGNPSDGFNGKTIAMSISNFWAEVTLMESQTLVLLPHPLNDPTEFGGLQDLFRISRKEGYLGGLRLLQATCKKFYQFCSEQGIALSKQNFTLKYDTNIPRQVGLAGSSAIVSATLKCLMKFYNITDNDLPQPVRANFILNVETDELFITAGLQDRVVQVYEGLVYMDFSKQLMDERGYGEYIPLDMRDLPMFWLAYLSDPSDSGRIHSNVRQRWLNGEPAVVEAMKSFAELTDQSRAAFQCKDWARLAQLMDENFELRRSVYTDDCLGPGNLKMVQLARQFGSAVKLPGSGGAVVGLCMDQERLMEMKRAFQEAGCVFCLIVPYDPSVQGQN
notes: C-terminal glucuronokinase (GHMP kinase) domain only, 357 residues, 40 kDa, of the 619-residue DrGKUP (N-terminal ~260-residue pyrophosphorylase domain removed); StrepII-tag; made in Nicotiana benthamiana leaves
Work on B1 yielded a Km [1] of 59.3 ± 9.1 µM and a kcat [1] of 1.3 s⁻¹.
